Legend:
[1] = system: Trypanosoma brucei; test: AntiTrypanosoma brucei activity T. b. rhodesiense IC50 (uM); type: functional, organism-based
[2] = PMM CC50 (uM) Cytotoxicity; type: functional; settings: Macrophage
[3] = system: MRC5; test: MRC5 CC50 (uM) Cytotoxicity; type: functional; settings: Homo sapiens
[4] = system: Leishmania infantum; test: AntiLeishmania activity L. infantum (macrophages) IC50 (uM); type: functional, organism-based
[5] = system: Trypanosoma cruzi; test: AntiTrypanosoma cruzi activity IC50 (uM); type: functional, organism-based
[6] = system: Trypanosoma brucei; test: AntiTrypanosoma brucei activity T. b. brucei IC50 (uM); type: functional, organism-based
[7] = system: HepG2; test: Cytotoxicity data HepG2 CC20 (uM); type: functional
[8] = system: HepG2; test: HepG2 inhibition at 10 uM (%) Cytotoxicity; type: functional; settings: Homo sapiens
[9] = system: Plasmodium falciparum; test: Antimalarial activity: Asexual Blood Stage Plasmodium falciparum 3D7 IC50 (uM); type: functional, organism-based
[10] = system: Plasmodium falciparum; test: Antimalarial activity: Asexual Blood Stage Plasmodium falciparum Dd2 IC50 (uM); type: functional, organism-based
[11] = system: Plasmodium falciparum; test: Antimalarial activity: Asexual Blood Stage Plasmodium falciparum W2 IC50 (uM); type: functional, organism-based
[12] = system: Plasmodium berghei; test: Antimalarial activity: Liver Stage Plasmodium berghei sporozoite Luciferase assay: inhibition at 10 uM (%); type: functional
[13] = system: Plasmodium falciparum; test: Antimalarial activity: Gametocytes Plasmodium falciparum NF54 Gametocytes Stage V: inhibition at 10 uM (%); type: functional

SMILES | IC50 [1] [µM] | CC50 [2] [µM] | CC50 [3] [µM] | IC50 [4] [µM] | IC50 [5] [µM] | IC50 [6] [µM] | CC20 [7] [µM] | inhibition at 10 µM [8] [%] | IC50 [9] [µM] | IC50 [10] [µM] | IC50 [11] [µM] | Inhibition [12] [%] | Inhibition [13] [%]
CN1CCCN(C(c2ccccc2)c2ccc(Cl)cc2)CC1 (centres undefined) [HOMOCHLORCYCLIZINE] | 1.94 | 48 | 31.8 | 36.3 | 9.44 | 4.64 |  |  |  |  |  |  | 
COc1ccc(S(=O)(=O)Nc2ccc(CN3CCN(C(=O)c4cccc(C#N)c4)CC3)cc2)cc1 | 0.4 | > 64 | > 64 | 52.2 | 2.7 | 0.5 |  |  |  |  |  |  | 
CC1=Nc2ccc(Cl)cc2C(c2ccccc2)N1CCNC(=O)CN(C)C (centres undefined) | 3.11 | > 32 | 16 | 10.1 | 17.1 | 3.78 | 16.4 |  |  |  |  |  | 
O=C(NCCc1ccn(-c2ccccc2)n1)C1CCCCC1 | < 0.13 | > 64 | > 64 | > 64 | 0.73 | 0.15 |  |  |  |  |  |  | 
O=C(NCc1nnc2n1CCCCC2)c1ccc(-c2ccc(F)cc2)o1 | 0.13 | > 64 | > 64 | > 64 | 2.07 | 0.1 |  |  |  |  |  |  | 
COc1ccc(C2=NCCN2)cc1-c1cn(-c2cccc(C3=NCCN3)c2)nn1 | 1.63 | > 32 | > 32 | > 32 | > 32 | > 32 | >80 |  |  |  |  |  | 
COc1ccc(C2=NN(C3CCCCCC3)C(=O)C2(C)C)cc1OCCCCOc1ccc(-c2nn[nH]n2)cc1 |  |  |  |  |  | 0.79 |  |  |  |  |  |  | 
Cc1nn2c(=O)c3c([nH]c2c1-c1ccc(Cl)cc1)CCCC3 | 0.14 | 48 | > 64 | 44 | 0.71 | 0.49 |  |  |  |  |  |  | 
CCC(=O)Nc1ccccc1C(=O)Nc1ccccn1 | 1.31 | > 64 | > 64 | > 64 | > 64 | 2.46 |  |  |  |  |  |  | 
COc1cc(C2=NCCN2)ccc1-n1cc(-c2cccc(C3=NCCN3)c2)nn1 | 3.81 | > 32 | > 32 | > 32 | > 32 | > 32 | >80 |  |  |  |  |  | 
CNc1cc(C)nc(C2CN(C(=O)c3n[nH]c4ccccc34)CCO2)c1 (centres undefined) |  |  | > 64 |  | 3.89 |  |  |  |  |  |  |  | 
N=C(N)Nc1ccc(-c2ccc(-c3ccc(NC(=N)N)cc3Cl)o2)c(Cl)c1 | 0.23 | 1 | 11.6 | 1.01 | 0.29 | 1.03 | 6.75 |  |  |  |  |  | 
CCCCN(CCCC)c1c(C#N)cc(S(=O)(=O)Nc2ccccc2)cc1C#N | 0.24 | 16 | 3.9 | 13.6 | 0.82 | 0.26 | 11.9 |  |  |  |  |  | 
N=C(N)Nc1ccc(-c2ccc(-c3ccc(N=C(N)N)c(Cl)c3)o2)cc1Cl | 0.2 | 16 | 15.4 | 10.2 | 0.66 | 0.6 | 13.5 |  |  |  |  |  | 
c1ccc(Oc2ccc(-c3cc(C4CCOCC4)[nH]n3)cc2)cc1 | 3.77 | > 32 | 22.8 | > 32 | 16.4 | 7.58 | 10.8 |  |  |  |  |  | 
Cc1nn2c(O)c3c(nc2c1-c1ccc(F)cc1)CCCC3 | 0.48 | > 64 | > 64 | 50.4 | 2.21 | 1.94 |  |  |  |  |  |  | 
O=C(Nc1ccc(F)c(-c2nc3cc(-c4ccccc4)cnc3[nH]2)c1)N1CCCC1 | < 0.13 | 16 | 0.4 | 0.16 | < 0.13 | < 0.13 |  |  |  |  |  |  | 
Cc1ccc(S(=O)(=O)Nc2ccc(CN3CCN(C(=O)c4cccc(C#N)c4)CC3)cc2)cc1 | 0.12 | > 64 | > 64 | 32 | 1.2 | 0.14 |  |  |  |  |  |  | 

SMILES | IC50 [1] [µM] | CC50 [2] [µM] | CC50 [3] [µM] | IC50 [4] [µM] | IC50 [5] [µM] | IC50 [6] [µM] | CC20 [7] [µM] | inhibition at 10 µM [8] [%] | IC50 [9] [µM] | IC50 [10] [µM] | IC50 [11] [µM] | Inhibition [12] [%] | Inhibition [13] [%]
Clc1ccc(CN2CCN(C3=NCCN3)CC2)cc1Cl | 30.1 | > 64 | > 64 | > 64 | 6.57 | 31.6 |  |  |  |  |  |  | 
CC(c1cc(Cl)cc(Cl)c1)N(C)c1ncc2c(N)nc(N)nc2n1 (centres undefined) |  | > 32 | 5.9 | 0.54 |  |  |  |  |  |  |  |  | 
CC1CCCCN1C(=O)NCCc1coc(-c2ccc(F)cc2)n1 (centres undefined) | 0.11 | > 64 | > 64 | > 64 | 0.48 | 0.13 |  |  |  |  |  |  | 
O=C([C@@H](c1ccc(Cl)cc1)c1cccnc1)N1CCN(c2ccc(C(F)(F)F)cc2)CC1 |  |  |  |  | 0.01 |  | 19 |  |  |  |  |  | 
CCN(CC)S(=O)(=O)c1ccc(C(=O)Nc2cc(C)nn2-c2nc(C)c(C)c(=O)[nH]2)cc1 | 1.7 | > 64 | 6.6 | 6.87 | 1.96 | 5.3 |  |  |  |  |  |  | 
CC(=O)Nc1ccc(-c2noc(CC3CCCN(Cc4cccc(F)c4C)C3)n2)cc1 (centres undefined) | 25.1 | > 64 | 29.4 | 1.59 | 2.8 | 32.3 |  |  |  |  |  |  | 
COc1ccc(C2=NN(C3CCCCCC3)C(=O)[C@@H]3CC=CC[C@H]23)cc1OCCCCOc1ccc(-c2nnn[nH]2)cc1 |  |  |  |  |  | 0.02 |  |  |  |  |  |  | 
CNCCC(Oc1ccc(C(F)(F)F)cc1)c1ccccc1 (centres undefined) [FLUOXETINE] |  | 16 | 11.4 |  |  |  | 8.97 |  |  |  |  |  | 
CO/C=C(/C(=O)OC)c1ccccc1Oc1cc(Oc2ccccc2C#N)ncn1 [AZOXYSTROBIN] |  |  | > 28 |  |  |  |  | 37 | 0.05 | 0.09 | 0.03 | 97 | 32.5
COc1ccc(Oc2ccc([C@@H](C)N(C)c3ncc4c(N)nc(N)nc4n3)cc2)cc1 |  | 4 | 5.4 | 0.03 |  |  |  |  |  |  |  |  | 
FC(F)(F)c1ccc(N(c2cccnc2)C2CCN(c3ccc(C(F)(F)F)cn3)CC2)cc1 |  |  |  |  | 0.01 |  | 25.8 |  |  |  |  |  | 
NCCN(C(=O)c1ccc(Cl)cc1Cl)c1ccc(OCc2ccc(Cl)cc2)cc1 | < 0.13 | 1 | 4 | 0.63 | 0.62 | < 0.13 |  |  |  |  |  |  | 
CS(=O)(=O)c1ccccc1C(=O)N(Cc1ccccc1)c1ccccc1 | 0.4 | > 64 | > 64 | > 64 | 35.4 | 0.56 |  |  |  |  |  |  | 
C[C@H](c1ccc2c(c1)CCCC2)N(C)c1ncc2c(N)nc(N)nc2n1 |  | 8 | 7.1 | 0.47 |  |  |  |  |  |  |  |  | 
CNC(=O)C1Cc2ccccc2N1C(=O)Cc1ccc(F)cc1 (centres undefined) | 0.38 | > 64 | > 64 | > 64 | > 64 | 0.49 |  |  |  |  |  |  | 
Cc1noc(C)c1COc1cccc(C(=O)N=c2[nH]cccc2C)c1 | 0.65 | > 64 | > 64 | > 64 | > 64 | 2.07 |  |  |  |  |  |  | 
CCOC(=O)c1noc(N)c1-c1ccccc1 | 0.46 | > 64 | > 64 | > 64 | > 64 | 1.22 |  |  |  |  |  |  | 

From ChEMBL document CHEMBL3832761, “MMV Pathogen Box Bioactivity Data” (2017)
